Converted amounts (≈) assume the structure as drawn.
How the values were obtained:
[1] = system: lymphocytes, macrophages and fibroblasts; settings: 24-hour in vitro, 0.01 to 0.8 mmols/liter
Description: The cells used as subject matter included lymphocytes, macrophages and fibroblasts. Viability following a 24-hour in vitro exposure with 5-aminophthaloylhydrazide in concentrations of 0.01 to 0.8 mmols/liter was determined by means of protein incorporation and/or synthesis.

male mice = settings: 40 to 80 mg/kg
Description: To study the pharmacological properties on the central nervous system, doses of 40 to 80 mg per kilogram of body weight were used. The choice of doses was based on safety criteria governing the use of medicines.
The neuropharmacological effects were studied in male mice of undefined strain which had reached sexual maturity. The mice, weighing 18 to 20 g, were given a solution of the drug intraabdominally. The neuropharmacological effects were studied on the basis of changes in the natural orientation reflex, in induced aggressiveness, and in muscle tone. The change in the natural sense of orientation was recorded according to the current method. To study the effect of the drug on induced aggressiveness, the electrical stimulation method (pain caused by electric current) was used.
The change in muscle tone was measured by means of the "pivot pin" method.

male rats = system: male rats
Description: The effect of the sodium salt of 5-aminophthaloylhydrazide on blood pressure (BP) was examined in male rats weighing 230 to 270 g, in a controlled experiment where the rats were anesthetized with urethane. The blood pressure was recorded on tape by means of an electrical kymograph.
At the same time, we recorded the electrocardiogram in the second standard position as well as any changes in frequency and depth of respiration by means of a Morey capsule. We administered 5-aminophthaloylhydrazide in the femoral vein in the form of an aqueous solution prepared in a 2% sodium bicarbonate solution (pH=8.2), in doses of 40 mg/kg, 80 mg/kg and 50 mg/kg. Research on 5-aminophthaloylhydrazide was performed on 16 rats.

physchem [2] = test: physchem
physchem [3] = test: physchem; remark: listed apart in the source

## Nc1cccc2c(=O)[nH][nH]c(=O)c12 [5-aminophthaloylhydrazide, 5-amino-2,3-dihydrophthalazine-1,2 dione]
[1]
  toxicity (viability by protein incorporation and/or synthesis): No toxicity was observed for any of the dosage levels tested
Male mice
  pain threshold: nor did it cause changes in muscle tone or modifications in the pain threshold
Male mice; intraabdominal
  natural orientation reflex: did not suppress the natural orientation reflex
Male mice; pivot pin method
  muscle tone: nor did it cause changes in muscle tone
Male rats; 20 mg and 50 mg/kg
  electrocardiogram parameters: no changes were observed in the electrocardiogram parameters of the heart
  respiratory functions: no impairment of the respiratory functions was observed
Male rats; 40 and 50 mg/kg
  negative effect on the cardiovascular system or the respiration: did not present any evidence of a negative effect on the cardiovascular system or the respiration
Male rats; i.v. 1% solution, 0.6 ml/minute, average
  rise in blood pressure compared to the initial level: 1.57±5.93%
Male rats; i.v., 40 mg or 50 mg/kg
  sudden fluctuations in the increase in blood pressure: No sudden fluctuations in the increase in blood pressure were observed
Male rats; i.v., average
  time for blood pressure to return to the initial level: ≤ 30 min
Male rats; thirty minutes after administration, average
  fluctuations in the level of blood pressure compared to the beginning: 2.79±0.72
Physchem [2]; pH 6.5
  solubility: 2 mM (≈ 354 µg/mL)
Physchem [2]; pH 7.4
  solubility: 12 mM (≈ 2130 µg/mL)
Physchem [3]
  pKa: 6.3

— US5512573A, “Use of phthaloylhydrazide derivatives as anti-hypoxic and defensive agents” (priority 1993, dated 1996)
